pIC50: −log10 of the molar value.
How the values were obtained:
[1] = Toxicity in castrated nude mouse xenografted with human HCC827 cells assessed as body weight loss at 10 mg/kg, po daily for 14 consecutive days relative to control; type: organism-based; settings: in vivo
NCI-H1975 [2] = assay: Antiproliferative activity against human NCI-H1975 cells harboring EGFR T790M/L858R double mutant after 72 hrs by MTS assay; type: functional, cell-based
Calu-6 = assay: Antiproliferative activity against human Calu6 cells harboring WT EGFR after 72 hrs by MTS assay; type: cell-based; settings: Calu-6, 72 h
[3] = Half life in po dosed mouse; type: ADME, organism-based; settings: in vivo
NCI-H1975 [4] = assay: Antitumor activity against human NCI-H1975 cells harboring EGFR T790M/L858R double mutant xenografted in castrated nude mouse assessed as tumor growth inhibition at 20 mg/kg, po daily for 14 consecutive days measured on day 15 relative to control; type: functional
PC-9 [5] = assay: Antiproliferative activity against human PC9 cells harboring EGFR mutant after 72 hrs by MTS assay; type: functional, cell-based; settings: PC-9, 72 h
HCC827 [6] = assay: Antiproliferative activity against human HCC827 cells harboring EGFR mutant after 72 hrs by MTS assay; type: functional, cell-based; settings: HCC827, 72 h
PC-9 [7] = assay: Antitumor activity against human PC9 cells harboring EGFR exon-19 del mutant xenografted in castrated nude mouse assessed as tumor growth inhibition at 10 mg/kg, po daily for 14 consecutive days measured on day 15 relative to control; type: functional
[8] = Toxicity in castrated nude mouse xenografted with human PC9 cells assessed as body weight loss at 10 mg/kg, po daily for 14 consecutive days relative to control; type: organism-based; settings: in vivo
Calu-3 = assay: Antiproliferative activity against human Calu3 cells harboring WT EGFR after 72 hrs by MTS assay; type: cell-based; settings: Calu-3, 72 h
[9] = Toxicity in castrated nude mouse xenografted with human NCI-H1975 cells assessed as body weight loss at 20 mg/kg, po daily for 14 consecutive days relative to control; type: organism-based; settings: in vivo
HCC827 [10] = assay: Antitumor activity against human HCC827 cells harboring EGFR exon-19 del mutant xenografted in castrated nude mouse assessed as tumor growth inhibition at 10 mg/kg, po daily for 14 consecutive days measured on day 15 relative to control; type: functional
[11] = Toxicity in castrated nude mouse xenografted with human NCI-H1975 cells assessed as body weight loss at 5 to 40 mg/kg, po daily for 14 consecutive days; type: organism-based; settings: in vivo
[12] = target: Epidermal growth factor receptor (Homo sapiens, UniProt P00533, L858R/T790M); assay: Inhibition of recombinant human N-terminal GST-tagged EGFR T790M/L858R double mutant (696-end residues) by fluorescence assay
PC-9 [13] = assay: Antitumor activity against human PC9 cells harboring EGFR exon-19 del mutant xenografted in castrated nude mouse assessed as tumor growth inhibition at 20 mg/kg, po daily for 14 consecutive days measured on day 15 relative to control; type: functional; settings: PC-9, po, 360 h, read-out: TGI
NCI-H1975 [14] = assay: Antitumor activity against human NCI-H1975 cells harboring EGFR T790M/L858R double mutant xenografted in castrated nude mouse assessed as tumor growth inhibition at 5 mg/kg, po daily for 14 consecutive days measured on day 15 relative to control; type: functional; settings: 360 h, read-out: TGI
[15] = Selectivity index, ratio of IC50 for human Calu3 cells harboring WT EGFR to IC50 for human PC9 cells harboring EGFR mutant
NCI-H1975 [16] = assay: Antitumor activity against human NCI-H1975 cells harboring EGFR T790M/L858R double mutant xenografted in castrated nude mouse assessed as tumor growth inhibition at 10 mg/kg, po daily for 14 consecutive days measured on day 15 relative to control; type: functional; settings: 360 h, read-out: TGI
[17] = target: T1, Epidermal growth factor receptor (Homo sapiens, UniProt P00533); assay: Inhibition of WT EGFR in human A431 cells assessed as reduction in ERK phosphorylation at T202/Y204 residues up to 10 uM after 4 hrs by Western blot analysis; type: cell-based
[18] = Selectivity index, ratio of IC50 for human A431 cells harboring WT EGFR to IC50 for human HCC827 cells harboring EGFR mutant
[19] = Selectivity index, ratio of GI50 for human A431 cells harboring WT EGFR to GI50 for human NCI-H1975 cells harboring EGFR T790M/L858R double mutant
HCC827 [20] = assay: Antitumor activity against human HCC827 cells harboring EGFR exon-19 del mutant xenografted in castrated nude mouse assessed as tumor growth inhibition at 3 mg/kg, po daily for 14 consecutive days measured on day 15 relative to control; type: functional; settings: 360 h, read-out: TGI
[21] = target: T1, Epidermal growth factor receptor; assay: Inhibition of WT EGFR phosphorylation at Y1068 residue in human A431 cells up to 10 uM after 4 hrs by Western blot analysis; type: cell-based
PC-9 [22] = assay: Antitumor activity against human PC9 cells harboring EGFR exon-19 del mutant xenografted in castrated nude mouse assessed as tumor growth inhibition administered orally daily for 14 consecutive days measured on day 15; type: functional, cell-based
[23] = Toxicity in castrated nude mouse xenografted with human HCC827 cells assessed as body weight loss at 0.3 to 10 mg/kg, po daily for 14 consecutive days; type: organism-based; settings: in vivo
[24] = Selectivity index, ratio of IC50 for human A431 cells harboring WT EGFR to IC50 for human NCI-H1975 cells harboring EGFR T790M/L858R double mutant
NCI-H1975 [25] = assay: Antitumor activity against human NCI-H1975 cells harboring EGFR T790M/L858R double mutant xenografted in castrated nude mouse assessed as tumor growth inhibition at 40 mg/kg, po daily for 14 consecutive days measured on day 15 relative to control; type: functional; settings: 360 h, read-out: TGI
NCI-H1975 [26] = assay: Antitumor activity against human NCI-H1975 cells harboring EGFR T790M/L858R double mutant xenografted in castrated nude mouse assessed as tumor growth inhibition administered orally daily for 14 consecutive days measured on day 15; type: functional, cell-based
PC-9 [27] = assay: Antitumor activity against human PC9 cells harboring EGFR exon-19 del mutant xenografted in castrated nude mouse assessed as tumor growth inhibition at 5 mg/kg, po daily for 14 consecutive days measured on day 15 relative to control; type: functional; settings: PC-9, po, 360 h, read-out: TGI
[28] = Toxicity in castrated nude mouse xenografted with human PC9 cells assessed as body weight loss at 2 to 20 mg/kg, po daily for 14 consecutive days; type: organism-based; settings: in vivo
PC-9 [29] = assay: Antitumor activity against human PC9 cells harboring EGFR exon-19 del mutant xenografted in castrated nude mouse assessed as tumor growth inhibition at 2 mg/kg, po daily for 14 consecutive days measured on day 15 relative to control; type: functional; settings: PC-9, po, 360 h, read-out: TGI
A-431 = assay: (§1) Antiproliferative activity against human A431 cells harboring WT EGFR after 72 hrs by MTS assay; type: cell-based; settings: Homo sapiens, A-431, 72 h
[30] = as §1; type: cell-based, A-431; settings: human, A431 cells harboring WT EGFR
[31] = target: T1, Epidermal growth factor receptor; assay: Inhibition of recombinant human N-terminal GST-tagged EGFR (696-end residues) expressed in baculovirus expression system using Srctide as substrate by fluorescence assay
HCC827 [32] = assay: Antitumor activity against human HCC827 cells harboring EGFR exon-19 del mutant xenografted in castrated nude mouse assessed as tumor growth inhibition at 1 mg/kg, po daily for 14 consecutive days measured on day 15 relative to control; type: functional; settings: 360 h, read-out: TGI
HCC827 [33] = assay: Antitumor activity against human HCC827 cells harboring EGFR exon-19 del mutant xenografted in castrated nude mouse assessed as tumor growth inhibition administered orally daily for 14 consecutive days measured on day 15; type: functional, cell-based
HCC827 [34] = assay: Antitumor activity against human HCC827 cells harboring EGFR exon-19 del mutant xenografted in castrated nude mouse assessed as tumor growth inhibition at 0.3 mg/kg, po daily for 14 consecutive days measured on day 15 relative to control; type: functional; settings: 360 h, read-out: TGI
[35] = Selectivity index, ratio of IC50 for human A431 cells harboring WT EGFR to IC50 for human PC9 cells harboring EGFR mutant
[36] = Selectivity index, ratio of IC50 for human Calu3 cells harboring WT EGFR to IC50 for human NCI-H1975 cells harboring EGFR T790M/L858R double mutant
[37] = target: Epidermal growth factor receptor (Homo sapiens, UniProt P00533, L858R); assay: Inhibition of recombinant human GST-tagged EGFR L858R mutant expressed in baculovirus expression system by fluorescence assay
[38] = Selectivity index, ratio of IC50 for human Calu3 cells harboring WT EGFR to IC50 for human HCC827 cells harboring EGFR mutant
Homo sapiens = species: Homo sapiens; assay: Selectivity index, ratio of IC50 for recombinant human N-terminal GST-tagged EGFR (696-end residues) expressed in baculovirus expression system to IC50 for recombinant human N-terminal GST-tagged EGFR T790M/L858R double mutant (696-end residues)

T1 sequence (P00533 whole entry): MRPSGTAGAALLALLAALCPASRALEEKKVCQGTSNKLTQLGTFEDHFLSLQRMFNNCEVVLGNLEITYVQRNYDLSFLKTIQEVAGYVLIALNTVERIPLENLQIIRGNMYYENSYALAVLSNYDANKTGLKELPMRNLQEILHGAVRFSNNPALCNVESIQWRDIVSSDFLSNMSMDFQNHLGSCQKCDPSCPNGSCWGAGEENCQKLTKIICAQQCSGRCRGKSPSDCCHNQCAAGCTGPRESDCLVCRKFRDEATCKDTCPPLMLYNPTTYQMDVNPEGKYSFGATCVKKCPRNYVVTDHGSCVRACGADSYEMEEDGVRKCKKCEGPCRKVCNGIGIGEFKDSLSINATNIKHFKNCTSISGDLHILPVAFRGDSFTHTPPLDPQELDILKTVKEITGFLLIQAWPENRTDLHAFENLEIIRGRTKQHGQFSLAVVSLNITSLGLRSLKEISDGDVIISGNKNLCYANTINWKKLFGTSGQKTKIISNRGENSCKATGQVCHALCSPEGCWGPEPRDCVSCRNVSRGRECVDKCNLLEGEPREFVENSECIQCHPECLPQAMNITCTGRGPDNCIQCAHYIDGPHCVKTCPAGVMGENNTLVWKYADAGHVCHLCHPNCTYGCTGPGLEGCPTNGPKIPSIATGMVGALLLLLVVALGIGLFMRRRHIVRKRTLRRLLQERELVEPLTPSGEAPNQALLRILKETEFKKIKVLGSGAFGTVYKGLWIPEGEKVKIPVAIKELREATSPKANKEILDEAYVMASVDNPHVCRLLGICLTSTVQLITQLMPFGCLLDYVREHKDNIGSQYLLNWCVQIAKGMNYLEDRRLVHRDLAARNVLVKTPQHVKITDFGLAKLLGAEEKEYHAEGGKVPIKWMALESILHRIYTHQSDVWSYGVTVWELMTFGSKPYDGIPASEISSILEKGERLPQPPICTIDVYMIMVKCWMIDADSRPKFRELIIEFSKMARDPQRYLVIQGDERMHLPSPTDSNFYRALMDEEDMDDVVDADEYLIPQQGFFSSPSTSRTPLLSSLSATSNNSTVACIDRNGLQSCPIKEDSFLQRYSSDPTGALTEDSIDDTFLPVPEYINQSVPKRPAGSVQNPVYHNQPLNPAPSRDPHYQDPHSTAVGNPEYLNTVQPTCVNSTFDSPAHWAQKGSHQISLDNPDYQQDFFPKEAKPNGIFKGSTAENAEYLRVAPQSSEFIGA
Chain of Epidermal growth factor receptor (Homo sapiens, UniProt P00533, L858R) (P00533 25-1210 L858R limits assumed): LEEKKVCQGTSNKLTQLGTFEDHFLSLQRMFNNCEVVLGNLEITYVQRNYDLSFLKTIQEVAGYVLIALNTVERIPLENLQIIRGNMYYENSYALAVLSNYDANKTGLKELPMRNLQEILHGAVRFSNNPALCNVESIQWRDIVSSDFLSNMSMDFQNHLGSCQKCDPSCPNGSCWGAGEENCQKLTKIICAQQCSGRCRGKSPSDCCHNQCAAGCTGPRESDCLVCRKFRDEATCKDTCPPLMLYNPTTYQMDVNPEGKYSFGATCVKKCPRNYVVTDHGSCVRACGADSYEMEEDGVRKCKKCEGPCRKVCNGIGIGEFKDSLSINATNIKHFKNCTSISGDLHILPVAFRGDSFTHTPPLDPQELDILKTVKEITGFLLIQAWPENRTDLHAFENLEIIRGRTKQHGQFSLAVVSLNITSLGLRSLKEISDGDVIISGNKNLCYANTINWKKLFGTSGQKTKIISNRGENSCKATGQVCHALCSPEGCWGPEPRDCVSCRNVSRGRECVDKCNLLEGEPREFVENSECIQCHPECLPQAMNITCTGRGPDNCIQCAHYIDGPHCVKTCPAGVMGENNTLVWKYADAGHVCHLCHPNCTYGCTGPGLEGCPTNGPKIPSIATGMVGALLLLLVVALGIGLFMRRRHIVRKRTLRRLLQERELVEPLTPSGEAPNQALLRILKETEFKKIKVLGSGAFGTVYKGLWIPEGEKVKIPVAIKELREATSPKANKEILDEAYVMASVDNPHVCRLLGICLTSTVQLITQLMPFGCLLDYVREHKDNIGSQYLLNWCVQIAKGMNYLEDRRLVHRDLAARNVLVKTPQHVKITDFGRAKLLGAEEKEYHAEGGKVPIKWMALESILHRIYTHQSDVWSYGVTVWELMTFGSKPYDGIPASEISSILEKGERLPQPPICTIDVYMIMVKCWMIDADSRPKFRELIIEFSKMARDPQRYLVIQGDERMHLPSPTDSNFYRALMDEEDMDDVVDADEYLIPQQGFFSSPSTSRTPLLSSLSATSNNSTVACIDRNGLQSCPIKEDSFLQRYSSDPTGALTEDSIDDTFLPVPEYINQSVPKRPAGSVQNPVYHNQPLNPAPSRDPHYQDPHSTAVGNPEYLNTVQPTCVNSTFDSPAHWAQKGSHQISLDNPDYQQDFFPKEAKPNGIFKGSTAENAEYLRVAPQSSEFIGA
Chain of Epidermal growth factor receptor (Homo sapiens, UniProt P00533, L858R/T790M) (P00533 25-1210 T790M/L858R limits assumed): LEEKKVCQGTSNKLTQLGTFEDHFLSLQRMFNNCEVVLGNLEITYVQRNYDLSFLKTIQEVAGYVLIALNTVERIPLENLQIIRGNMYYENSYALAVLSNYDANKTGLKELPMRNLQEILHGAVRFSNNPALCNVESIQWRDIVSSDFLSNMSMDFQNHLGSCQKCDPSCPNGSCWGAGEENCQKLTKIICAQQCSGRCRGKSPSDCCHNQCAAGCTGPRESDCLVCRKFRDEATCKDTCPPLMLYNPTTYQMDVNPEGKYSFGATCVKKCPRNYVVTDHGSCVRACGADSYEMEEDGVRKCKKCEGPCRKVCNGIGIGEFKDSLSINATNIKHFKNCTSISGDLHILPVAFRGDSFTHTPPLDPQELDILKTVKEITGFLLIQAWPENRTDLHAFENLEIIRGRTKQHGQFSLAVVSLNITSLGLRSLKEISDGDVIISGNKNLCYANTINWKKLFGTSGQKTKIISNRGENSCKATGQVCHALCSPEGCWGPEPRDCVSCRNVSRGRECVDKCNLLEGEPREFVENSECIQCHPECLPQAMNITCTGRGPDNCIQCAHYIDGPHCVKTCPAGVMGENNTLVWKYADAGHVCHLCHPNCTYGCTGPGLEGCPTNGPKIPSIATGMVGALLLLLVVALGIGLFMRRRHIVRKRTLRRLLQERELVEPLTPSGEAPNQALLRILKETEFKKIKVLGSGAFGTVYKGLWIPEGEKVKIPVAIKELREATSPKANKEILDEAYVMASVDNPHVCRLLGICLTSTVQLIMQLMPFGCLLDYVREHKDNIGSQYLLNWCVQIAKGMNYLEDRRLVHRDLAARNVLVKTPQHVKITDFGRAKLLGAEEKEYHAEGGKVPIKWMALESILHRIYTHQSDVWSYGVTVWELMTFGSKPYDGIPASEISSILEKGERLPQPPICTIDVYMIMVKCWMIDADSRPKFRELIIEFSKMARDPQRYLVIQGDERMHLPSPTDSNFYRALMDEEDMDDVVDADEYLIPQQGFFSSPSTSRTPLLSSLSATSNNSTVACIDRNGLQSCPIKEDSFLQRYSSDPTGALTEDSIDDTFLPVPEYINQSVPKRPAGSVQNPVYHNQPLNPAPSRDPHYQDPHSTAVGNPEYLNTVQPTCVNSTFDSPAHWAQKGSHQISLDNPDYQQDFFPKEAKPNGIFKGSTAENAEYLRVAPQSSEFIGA

## C=CC(=O)Nc1cc(Nc2nccc(-c3cn(C)c4ccccc34)n2)c(OC)cc1N(C)CCN(C)C [OSIMERTINIB]
[1]
  Activity: […]
NCI-H1975 [2]
  GI50: […]
NCI-H1975 [2]; Homo sapiens, NCI-H1975, 72 h
  pIC50: […]
Calu-6
  pIC50: 5.23
[3]
  half-life: 180 min
NCI-H1975 [4]
  TGI: 107%
PC-9 [5]
  pIC50: 6.80
HCC827 [6]
  pIC50: […]
PC-9 [7]
  TGI: 106%
[8]
  Activity: […]
Calu-3
  pIC50: 6.12
[9]
  Activity: <= 15%
HCC827 [10]
  TGI: 121%

## C=CC(=O)Nc1cc(Nc2nccc(-c3cn(C)c4cccnc34)n2)c(OC)cc1N(C)CCN(C)C
[11]
  Activity: Non-Toxic
NCI-H1975 [2]; Homo sapiens, NCI-H1975, 72 h
  GI50: 6.8 nM
  pIC50: 6.85
Calu-6
  pIC50: < 5.00
[12]
  pIC50: 5.68
PC-9 [13]
  inhibition in vivo at 20 mg/kg: 107%
NCI-H1975 [14]
  inhibition in vivo at 5 mg/kg: 48%
[15]
  Ratio IC50: 50
NCI-H1975 [4]; Mus musculus, NCI-H1975, po, 360 h, read-out: TGI
  inhibition in vivo at 20 mg/kg: 99%
NCI-H1975 [16]
  inhibition in vivo at 10 mg/kg: 84%
[17]
  inhibition (INH): Not Active
PC-9 [5]
  pIC50: 6.70
[18]
  Ratio IC50: 219.3
[19]
  RatioGI50: 73.5
HCC827 [20]
  inhibition in vivo at 3 mg/kg: 119%
[21]
  inhibition (INH): Not Active
PC-9 [22]
  TGI: Dose-dependent effect
[23]
  Activity: Non-Toxic
[24]
  Ratio IC50: 23.5
HCC827 [6]
  pIC50: 7.82
NCI-H1975 [25]
  inhibition in vivo at 40 mg/kg: 106%
NCI-H1975 [26]
  TGI: Dose-dependent effect
PC-9 [27]
  inhibition in vivo at 5 mg/kg: 94%
[28]
  Activity: Non-Toxic
PC-9 [29]
  inhibition in vivo at 2 mg/kg: 67%
PC-9 [7]; Mus musculus, PC-9, po, 360 h, read-out: TGI
  inhibition in vivo at 10 mg/kg: 104%
A-431
  pIC50: 5.48
[30]
  GI50 at 72 h: 500 nM
[31]
  pIC50: 4.20
HCC827 [32]
  inhibition in vivo at 1 mg/kg: 83%
HCC827 [33]
  TGI: Dose-dependent effect
HCC827 [34]
  inhibition in vivo at 0.3 mg/kg: 74%
[35]
  Ratio IC50: 16.5
[36]
  Ratio IC50: 71.4
[37]
  pIC50: 5.26
[38]
  Ratio IC50: 666.7
Calu-3
  pIC50: < 5.00
Homo sapiens
  Ratio IC50: 30
HCC827 [10]; Mus musculus, HCC827, po, 360 h, read-out: TGI
  inhibition in vivo at 10 mg/kg: 125%

From ChEMBL document CHEMBL4382217 (Bioorg Med Chem, 2018)
